One series deals with HBV. In words: Anti-HBV activity in HepG2.117 cell line (intracellular HBV DNA, real-time PCR). In kind it is cell-based, hepatitis B virus. To be noted: HepG2.117 cells, HBV replication induced, 3 days of treatment, intracellular HBV DNA by real-time PCR. A digest of the protocol: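 HepG2.117 cells (Tet-off, doxycycline-free HBV replication) induced for HBV replication, then exposed to serially diluted compound for 3 days. Intracellular HBV DNA quantified by real-time PCR with HBV-specific primers and probe.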
On the technique in general: Real-time PCR tracks product formation cycle by cycle.

A further series concerns HepG2 or HepG2.117 cells. In words: Cytotoxicity, ATPlite Luminescence Assay. To be noted: 3-days incubation unless marked with *, ATPlite viability. In kind it is cell-based, human. A digest of the protocol:
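Compounds were added to cells and incubated 3 or 4 days. ATP content was then measured by luminescence to gauge cell viability.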

Series [1] in a line: Human liver microsome stability. To be noted: pooled human liver microsomes 0.5 mg/mL, 1 μM compound, NADPH 1 mM, pH 7.4, 37° C., 0-60 min. It counts as in vitro ADME. A digest of the protocol:
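Pooled human liver microsomes (0.5 mg/mL) incubated at 37 °C with 1 μM compound in 0.1 M phosphate pH 7.4, 1 mM MgCl2; 1 mM NADPH starts reaction. Samples quenched in acetonitrile at 0–60 min, analysed by LC-MS against internal standard; half-life from slope of ln peak-area ratio versus time.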
Background: Microsomes from liver hold many membrane-bound enzymes, among them those of drug oxidation.

As for `CNC(=O)[C@@H]1CN(C(C)c2ccc(C3CC3)nc2)C(=O)c2c3c(nn21)C[C@@H](C)N(C(=O)c1ccc(Cl)c(Cl)c1)C3` (single isomer, unassigned) [Compound 32B, (3R,7S)-9-((S*)-1-(6-cyclopropylpyridin-3-yl)ethyl)-2-(3,4-dichlorobenzoyl)-N,3-dimethyl-10-oxo-1,2,3,4,7,8,9,10-octahydropyrido[4′,3′:3,4]pyrazolo[1,5-a]pyrazine-7-carboxamide], in the series on HBV, the EC50 worked out at 0.011 µM. For the same compound, the half-maximal cytotoxic concentration (CC50) in the series with HepG2 or HepG2.117 cells was 48.7 µM. In addition, in series [1], the “HLM Metabolism t1/2” value is over 3 h.

In the series on HBV, `CNC(=O)[C@@H]1CN(C(C)c2ccc(NCC(F)(F)F)nc2)C(=O)c2c3c(nn21)C[C@@H](C)N(C(=O)c1ccc(Cl)c(Cl)c1)C3` (single isomer, unassigned) [Compound 33B, (3R,7S)-2-(3,4-dichlorobenzoyl)-N,3-dimethyl-10-oxo-9-((S*)-1-(6-((2,2,2-trifluoroethyl)amino)pyridin-3-yl)ethyl)-1,2,3,4,7,8,9,10-octahydropyrido[4′,3′:3,4]pyrazolo[1,5-a]pyrazine-7-carboxamide] registered an EC50 of 0.055 µM. In addition, the CC50 with HepG2 or HepG2.117 cells is over 50 µM. In series [1], the “HLM Metabolism t1/2” value is over 3 h.

Compound `CNC(=O)[C@@H]1CN(C(C)c2ccc(-c3c(C)noc3C)nc2)C(=O)c2c3c(nn21)C[C@@H](C)N(C(=O)c1ccc(Cl)c(Cl)c1)C3` (single isomer, unassigned) [Compound 35B, (3R,7S)-2-(3,4-dichlorobenzoyl)-9-((S*)-1-(6-(3,5-dimethylisoxazol-4-yl)pyridin-3-yl)ethyl)-N,3-dimethyl-10-oxo-1,2,3,4,7,8,9,10-octahydropyrido[4′,3′:3,4]pyrazolo[1,5-a]pyrazine-7-carboxamide] yielded a concentration for a half-maximal effect (EC50) in the series with HBV of 0.082 µM. This compound also registered a half-maximal cytotoxic concentration (CC50) with HepG2 or HepG2.117 cells of over 50 µM. The “HLM Metabolism t1/2” value in series [1] worked out at 2.17 h.

`CNC(=O)[C@@H]1CN(C(C)c2ccc(C(F)F)nc2)C(=O)c2c3c(nn21)C[C@@H](C)N(C(=O)c1ccc(Cl)c(Cl)c1)C3` (single isomer, unassigned) [Compound 36B, (3R,7S)-2-(3,4-dichlorobenzoyl)-9-((S*)-1-(6-(difluoromethyl)pyridin-3-yl)ethyl)-N,3-dimethyl-10-oxo-1,2,3,4,7,8,9,10-octahydropyrido[4′,3′:3,4]pyrazolo[1,5-a]pyrazine-7-carboxamide]: the EC50 in the series on HBV was found to be 0.05 µM. This compound also had a CC50 with HepG2 or HepG2.117 cells of over 50 µM. The “HLM Metabolism t1/2” value in series [1] is over 3 h.

`CNC(=O)[C@@H]1CN(C(C)c2ccccn2)C(=O)c2c3c(nn21)C[C@@H](C)N(C(=O)c1ccc(Cl)c(Cl)c1)C3` (single isomer, unassigned) [Compound 37B, (3R,7S)-2-(3,4-dichlorobenzoyl)-N,3-dimethyl-10-oxo-9-((S*)-1-(pyridin-2-yl)ethyl)-1,2,3,4,7,8,9,10-octahydropyrido[4′,3′:3,4]pyrazolo[1,5-a]pyrazine-7-carboxamide] yielded a 50% effective concentration (EC50) in the series with HBV of 0.067 µM. This compound also registered a CC50 in the series on HepG2 or HepG2.117 cells of over 50 µM. Moreover, the “HLM Metabolism t1/2” value in series [1] is over 3 h.

As to `CNC(=O)[C@@H]1CN(C(C)c2cccc(Cl)n2)C(=O)c2c3c(nn21)C[C@@H](C)N(C(=O)c1ccc(Cl)c(Cl)c1)C3` (single isomer, unassigned) [Compound 38B, (3R,7S)-9-((S*)-1-(6-chloropyridin-2-yl)ethyl)-2-(3,4-dichlorobenzoyl)-N,3-dimethyl-10-oxo-1,2,3,4,7,8,9,10-octahydropyrido[4′,3′:3,4]pyrazolo[1,5-a]pyrazine-7-carboxamide], the EC50 in the series with HBV was 0.04 µM. In the series on HepG2 or HepG2.117 cells, this compound had a CC50 of over 50 µM. Also, in series [1], the “HLM Metabolism t1/2” value came to 2.4 h.

In the case of `CNC(=O)[C@@H]1CN(C(C)c2ccc(C(C)(C)O)cn2)C(=O)c2c3c(nn21)C[C@@H](C)N(C(=O)c1ccc(Cl)c(Cl)c1)C3` (single isomer, unassigned) [Compound 39B, (3R,7S)-2-(3,4-dichlorobenzoyl)-9-((S*)-1-(5-(2-hydroxypropan-2-yl)pyridin-2-yl)ethyl)-N,3-dimethyl-10-oxo-1,2,3,4,7,8,9,10-octahydropyrido[4′,3′:3,4]pyrazolo[1,5-a]pyrazine-7-carboxamide], in the series with HBV, the response was half-maximal at 0.12 µM (EC50). Besides, the CC50 with HepG2 or HepG2.117 cells is over 50 µM. Moreover, the “HLM Metabolism t1/2” value in series [1] is over 3 h.

Turning to `CNC(=O)[C@@H]1CN(C(C)c2ccc(-n3cncn3)cn2)C(=O)c2c3c(nn21)C[C@@H](C)N(C(=O)c1ccc(Cl)c(Cl)c1)C3` (single isomer, unassigned) [Compound 40B, (3R,7S)-9-((S*)-1-(5-(1H-1,2,4-triazol-1-yl)pyridin-2-yl)ethyl)-2-(3,4-dichlorobenzoyl)-N,3-dimethyl-10-oxo-1,2,3,4,7,8,9,10-octahydropyrido[4′,3′:3,4]pyrazolo[1,5-a]pyrazine-7-carboxamide], the concentration for a half-maximal effect (EC50) in the series with HBV came to 0.097 µM. Moreover, in the series with HepG2 or HepG2.117 cells, the CC50 was over 50 µM. The “HLM Metabolism t1/2” value in series [1] is over 3 h.

Compound `CNC(=O)[C@@H]1CN(C(C)c2ccc(-n3ncnc3C)cn2)C(=O)c2c3c(nn21)C[C@@H](C)N(C(=O)c1ccc(Cl)c(Cl)c1)C3` (single isomer, unassigned) [Compound 41B, (3R,7S)-2-(3,4-dichlorobenzoyl)-N,3-dimethyl-9-((S*)-1-(5-(5-methyl-1H-1,2,4-triazol-1-yl)pyridin-2-yl)ethyl)-10-oxo-1,2,3,4,7,8,9,10-octahydropyrido[4′,3′:3,4] pyrazolo[1,5-a]pyrazine-7-carboxamide] gave an EC50 with HBV of 0.1 µM. The 50% cytotoxic concentration (CC50) in the series on HepG2 or HepG2.117 cells is over 50 µM. In series [1], the “HLM Metabolism t1/2” value was over 3 h.

As for `CNC(=O)[C@@H]1CN(C(C)c2cc(F)ccn2)C(=O)c2c3c(nn21)C[C@@H](C)N(C(=O)c1ccc(Cl)c(Cl)c1)C3` (single isomer, unassigned) [Compound 42B, (3R,7S)-2-(3,4-dichlorobenzoyl)-9-((S*)-1-(4-fluoropyridin-2-yl)ethyl)-N,3-dimethyl-10-oxo-1,2,3,4,7,8,9,10-octahydropyrido[4′,3′:3,4]pyrazolo[1,5-a]pyrazine-7-carboxamide], a half-maximal effect in the series on HBV (EC50) was put at 0.02 µM. In the series on HepG2 or HepG2.117 cells, this compound returned a cytotoxic concentration (CC50) of over 50 µM. Besides, the “HLM Metabolism t1/2” value in series [1] was over 3 h.

In the series on HBV, `CNC(=O)[C@@H]1CN(C(C)c2cnc(C(F)(F)F)nc2)C(=O)c2c3c(nn21)C[C@@H](C)N(C(=O)c1ccc(Cl)c(C(F)(F)F)c1)C3` (single isomer, unassigned) [Compound 43B, (3R,7S)-2-(4-chloro-3-(trifluoromethyl)benzoyl)-N,3-dimethyl-10-oxo-9-((S*)-1-(2-(trifluoromethyl)pyrimidin-5-yl)ethyl)-1,2,3,4,7,8,9,10-octahydropyrido[4′,3′:3,4]pyrazolo[1,5-a]pyrazine-7-carboxamide] had an EC50 of 0.057 µM. The same compound returned a 50% cytotoxic concentration (CC50) in the series on HepG2 or HepG2.117 cells of over 50 µM. Besides, the “HLM Metabolism t1/2” value in series [1] is over 3 h.

With `CNC(=O)[C@@H]1CN(C(C)c2nc(C(F)(F)F)cs2)C(=O)c2c3c(nn21)C[C@@H](C)N(C(=O)c1ccc(Cl)c(Cl)c1)C3` (single isomer, unassigned) [Compound 44B, (3R,7S)-2-(3,4-dichlorobenzoyl)-N,3-dimethyl-10-oxo-9-((S*)-1-(4-(trifluoromethyl)thiazol-2-yl)ethyl)-1,2,3,4,7,8,9,10-octahydropyrido[4′,3′:3,4]pyrazolo[1,5-a]pyrazine-7-carboxamide], the response in the series with HBV was half-maximal at 0.091 µM (EC50). This compound gave a CC50 in the series on HepG2 or HepG2.117 cells of over 50 µM. Besides, in series [1], the “HLM Metabolism t1/2” value was over 3 h.

By EC50 is commonly meant the concentration needed to bring the measured effect to its halfway point. A lower EC50 goes with a more potent agent. Usually CC50 stands for the concentration at which the toxic effect on the cells reaches its halfway point. Low readings indicate greater toxicity to the cells, high ones lower toxicity to the cells.

Source of the values: patent US20240279227A1, “FUSED HETEROCYCLIC DERIVATIVES” (Janssen Sciences Ireland Unlimited Company, priority 2021, published 2024).
